Measured values published in US6858597B2, “Halogenated sulphamate-, phosphonate-, thiophosphonate-, sulphonate- and sulphonamide- compounds as inhibitors of steroid sulphatase” (Sterix Limited, priority 1999, dated 2005).

What was measured:
[1] = molecular target: T1, steroid sulphatase (STS) (Homo sapiens, UniProt P08842); test: STS inhibition, IC50 (protocol not given); assay type: biochemical; conditions: assay not given
T1 construct: Placental microsomes were obtained by centrifugation of the resulting supernatant at 100,000×g for 1 h; from tissue; host or cells: human placenta (microsomes)
T1 sequence (P08842 22-583): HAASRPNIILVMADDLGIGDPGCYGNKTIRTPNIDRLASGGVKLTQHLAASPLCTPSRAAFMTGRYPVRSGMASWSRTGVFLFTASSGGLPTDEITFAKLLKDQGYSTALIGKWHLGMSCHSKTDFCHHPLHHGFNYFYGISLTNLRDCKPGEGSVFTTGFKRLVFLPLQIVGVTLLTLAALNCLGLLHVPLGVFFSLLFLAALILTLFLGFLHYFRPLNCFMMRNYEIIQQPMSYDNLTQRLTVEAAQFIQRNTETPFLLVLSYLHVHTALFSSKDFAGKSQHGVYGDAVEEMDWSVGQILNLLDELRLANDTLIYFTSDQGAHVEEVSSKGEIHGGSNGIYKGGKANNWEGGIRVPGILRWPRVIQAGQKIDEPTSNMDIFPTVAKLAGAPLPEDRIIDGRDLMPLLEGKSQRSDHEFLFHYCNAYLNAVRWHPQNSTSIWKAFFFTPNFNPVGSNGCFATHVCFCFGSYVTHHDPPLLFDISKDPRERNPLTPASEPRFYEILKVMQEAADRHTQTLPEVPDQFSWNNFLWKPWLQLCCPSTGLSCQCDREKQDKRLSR
Method: Sulphatase-positive human placenta from normal term pregnancies are thoroughly minced with scissors and washed once with cold phosphate buffer (pH 7.4, 50 mM) then re-suspended in cold phosphate buffer (5 ml/g tissue). Homogenisation is accomplished with an Ultra-Turrax homogeniser, using three 10 second bursts separated by 2 minute cooling periods in ice. Nuclei and cell debris are removed by centrifuging (4° C.) at 2000 g for 30 minutes and portions (2 ml) of the supernatant are stored at […] The protein concentration of the supernatants is determined by the method of Bradford (Anal. Biochem., 72, 248-254 (1976)).
Incubations (1 ml) are carried out using a protein concentration of […], substrate concentration of […] [6,7-3H]oestrone-3-sulphate (specific activity 60 Ci/mmol from New England Nuclear, Boston, Mass., U.S.A.) and an incubation time of 20 minutes at 37° C. If necessary eight concentrations of compounds are employed: 0 (i.e. control); 0.05 mM; 0.1 mM; 0.2 mM; 0.4 mM; 0.6 mM; 0.8 mM; 1.0 mM. After incubation each sample is cooled and the medium (1 ml) was pipetted into separate tubes containing [14C]oestrone (7×10^3 dpm) (specific activity 97 Ci/mmol from Amersham International Radiochemical Centre, Amersham, U.K.). The mixture is shaken thoroughly for 30 seconds with toluene (5 ml). Experiments have shown that >90% [14C]oestrone and <0.1% [3H]oestrone-3-sulphate is removed from the aqueous phase by this treatment. A portion (2 ml) of the organic phase was removed, evaporated and the 3H and 14C content of the residue determined by scintillation spectrometry. The mass of oestrone-3-sulphate hydrolysed is calculated from the 3H counts obtained (corrected for the volumes of the medium and organic phase used, and for recovery of [14C]oestrone added) and the specific activity of the substrate.
A sulphatase—positive human placenta was used as a source of placental microsomes. Tissue was homogenised and nuclei and cell debris removed by centrifugation at 2000×g for 30 min. Placental microsomes were obtained by centrifugation of the resulting supernatant at 100,000×g for 1 h.
For inhibition studies placental microsomes (125 μg/ml) were incubated in the absence or presence of inhibitors (1 pm-1.0 μM) with ^3H estrone sulphate (E1S, 2×10^5 dpm adjusted to 20 μM with unlabelled E1S for 60 mins. [4-^14C E1] (7×10^3 dpm) was added to correct for procedural losses and free and sulphated steroids separated by solvent partition using toluene. A portion of the solvent was removed and the ^3H and ^14C content determined by liquid scintillation spectrometry.

[2] = tested on: MCF-7 cells; test: Plate Assay in MCF-7 cells; assay type: cell-based; conditions: Homo sapiens, MCF7
[3] = tested on: T47D cells; test: Effect of Halo-EMATEs on T47D cell growth (plate assay); assay type: cell-based; set-up: key to Morphology: +: has effect on cell morphology; conditions: for inhibition at 1 µM / inhibition at 10 µM: Homo sapiens, 24 h
Method: Effect of Halo-EMATES on T47D Cell Growth (Plate Assay)
T47D receptor positive breast cancer cells were seeded into a 96 well cell culture plate and allowed to grow until approximately 70% confluent. Cells were treated with either vehicle (controls, tetrahydrofuran in medium) or halo-EMATEs (1 or 10 μM) and cultured for a further 24 h. At the end of this period effects of the drugs on cell numbers were determined using a microtitre plate assay (Cell Titre 96 cell proliferation assay, Promega). In this assay the conversion of substrate by untreated cells at the end of the culture period was set at 100%.

[4] = molecular target: T2, E1-STS (Homo sapiens, UniProt P08842); conditions: intact MCF-7 cells, 0.1 mM; cited from earlier work
T2 construct: endogenous in cells; host or cells: MCF-7
T2 sequence (P08842 22-583): T1 sequence (P08842 22-583)

[5] = tested on: rats; conditions: cited from earlier work
[6] = molecular target: T3, steroid sulphatase (Homo sapiens, UniProt P08842); conditions: compared with EMATE, cited from earlier work; for E1-STS inactivation: 3-O-atom replaced by other heteroatoms
T3 sequence (P08842 22-583): T1 sequence (P08842 22-583)

[7] = cited from earlier work

## C[C@]12CC[C@@H]3c4cc(I)c(OS(N)(=O)=O)cc4CC[C@H]3[C@@H]1CCC2=O [Compound 7, 2-Iodooestrone 3-O-sulphamate]
[1]
  IC50: 6.1 nM
[2]
  inhibition at 10 µM: 25%
[3]
  Morphology: +

## CC12CCC3c4ccc(OS(N)(=O)=O)cc4CCC3C1CCC2=O (stereo not shown) [EMATE, oestrone-3-O-sulphamate]
[4]
  inhibition of E1-STS activity: more than 99%
[5]; rats, oral
  oral uterotrophic activity relative to estradiol: 100 times

## COc1cc2c(cc1OS(N)(=O)=O)CC[C@@H]1[C@@H]2CC[C@]2(C)C(=O)CC[C@@H]12 [2-methoxyoestrone-3-O-sulphamate]
[5]; rat, in vivo
  oestrogenicity: devoid of oestrogenicity
[6]
  potency as steroid sulphatase inhibitor: equipotent with EMATE

## C[C@]12CC[C@@H]3c4ccc(OS(=O)(=O)O)cc4CC[C@H]3[C@@H]1CCC2=O [Compound E1S, oestrone sulphate]
[7]
  half-life in blood: 10 to 12 h

## C[C@]12CC[C@@H]3c4cc(Br)c(OS(N)(=O)=O)cc4CC[C@H]3[C@@H]1CCC2=O [Compound 4, 2-Bromooestrone 3-O-sulphamate]
[1]
  IC50: 1.65 nM
[2]
  inhibition at 10 µM: 33%
[3]
  Morphology: +

## C[C@]12CCC3c4cc(F)c(OS(N)(=O)=O)cc4CCC3C1CCC2=O (stereo partly shown) [Compound 13, 2-Fluorooestrone-3-O-sulphamate]
[1]
  IC50: 5.6 nM
[3]
  Morphology: +
  inhibition at 1 µM: < 1%
  inhibition at 10 µM: 30%

## oestrone-3-N-sulphamate
[6]
  E1-STS inactivation: weaker non-time-dependent inactivators

## C[C@]12CC[C@@H]3c4cc(Cl)c(OS(N)(=O)=O)cc4CC[C@H]3[C@@H]1CCC2=O [Compound 10, 2-Chloroestrone 3-O-sulphamate]
[1]
  IC50: 0.8 nM
[2]
  inhibition at 10 µM: 35%
[3]
  Morphology: +
  inhibition at 1 µM: 1%
  inhibition at 10 µM: 7.5%

## oestrone-3-S-sulphamate
[6]
  E1-STS inactivation: weaker non-time-dependent inactivators
